Assay results reported in patent US20190389903A1, “INSULIN A-CHAIN DERIVED PEPTIDE FRAGMENT AND PHARMACEUTICAL COMPOSITION FOR PREVENTING OR TREATING DIABETES OR DIABETIC WOUNDS, CONTAINING THE SAME” (SUPADELIXIR INC., priority 2017, published 2019).

Assays:
Format in all cases: cell-based
insulin receptor [1] = assay: RNA interference: endocytosis after insulin receptor siRNA transfection in HaCaT cells; conditions: FITC-conjugated peptide 1 μM, 5 min, siRNA 10 nM or 30 nM vs no treatment, FIG. 2B
insulin receptor, sequence (P06213 28-758 limits assumed): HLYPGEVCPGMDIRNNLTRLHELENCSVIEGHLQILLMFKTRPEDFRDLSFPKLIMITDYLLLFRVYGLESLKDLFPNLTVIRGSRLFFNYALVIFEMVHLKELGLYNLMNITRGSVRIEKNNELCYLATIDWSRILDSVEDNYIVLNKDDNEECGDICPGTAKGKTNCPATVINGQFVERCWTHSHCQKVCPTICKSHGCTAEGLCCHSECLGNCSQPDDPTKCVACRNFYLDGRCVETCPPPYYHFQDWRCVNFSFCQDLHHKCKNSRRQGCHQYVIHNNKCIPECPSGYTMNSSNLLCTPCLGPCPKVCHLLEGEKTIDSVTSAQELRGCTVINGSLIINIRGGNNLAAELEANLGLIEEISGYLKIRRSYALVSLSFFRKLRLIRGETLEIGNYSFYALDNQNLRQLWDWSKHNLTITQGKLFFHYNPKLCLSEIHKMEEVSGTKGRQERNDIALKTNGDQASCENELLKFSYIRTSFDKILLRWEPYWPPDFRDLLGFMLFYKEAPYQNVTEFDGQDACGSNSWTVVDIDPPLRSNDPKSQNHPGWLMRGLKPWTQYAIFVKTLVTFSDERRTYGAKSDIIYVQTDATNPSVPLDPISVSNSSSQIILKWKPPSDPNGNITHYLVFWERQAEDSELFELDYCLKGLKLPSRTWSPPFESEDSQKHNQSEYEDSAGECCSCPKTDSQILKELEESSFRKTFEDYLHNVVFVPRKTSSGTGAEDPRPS
insulin receptor, sequence (P06213 763-1382 partner limits assumed): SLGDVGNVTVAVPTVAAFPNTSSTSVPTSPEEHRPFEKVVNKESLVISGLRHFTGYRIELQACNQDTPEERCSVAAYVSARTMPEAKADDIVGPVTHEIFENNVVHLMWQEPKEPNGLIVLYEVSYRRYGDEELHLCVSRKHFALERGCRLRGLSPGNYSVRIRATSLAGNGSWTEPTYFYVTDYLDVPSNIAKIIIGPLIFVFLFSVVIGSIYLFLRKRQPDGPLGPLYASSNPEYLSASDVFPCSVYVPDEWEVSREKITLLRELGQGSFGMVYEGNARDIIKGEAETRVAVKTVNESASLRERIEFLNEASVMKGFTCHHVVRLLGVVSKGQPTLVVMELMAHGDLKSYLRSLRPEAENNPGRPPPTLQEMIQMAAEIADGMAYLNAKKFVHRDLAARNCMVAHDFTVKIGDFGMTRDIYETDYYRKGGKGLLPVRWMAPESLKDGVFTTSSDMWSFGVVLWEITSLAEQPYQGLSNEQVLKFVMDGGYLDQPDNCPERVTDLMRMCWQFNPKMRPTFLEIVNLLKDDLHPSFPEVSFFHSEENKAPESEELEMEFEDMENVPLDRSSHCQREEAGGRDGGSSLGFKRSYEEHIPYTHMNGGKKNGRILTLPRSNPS
Method: Based on the above test results, in order to determine whether the effect of the peptide of the present invention on endocytosis is mediated by the insulin receptor, RNA interference was analyzed. HaCaT cells (CLS 300493) were cultured in a DMEM serum medium until the cells reached 50-60% confluency, followed by transient transfection using the insulin receptor siRNA (Santa Cruz, Calif., USA) (no treatment, 10 nM treatment, or 30 nM treatment) and lipofectamine RNAiMAX (Invitrogen) in accordance with the manufacturer's protocol to thus inhibit the insulin receptor expression, after which the cells were treated for 5 min using the peptide of SEQ ID NO: 3 having the fluorescent material conjugated thereto at a concentration of 1 μM. The fluorescence intensity of each group was observed using a confocal laser microscope (Olympus FluoView FW1000; Olympus, Tokyo, Japan).

[2] = system: glucose transporter (GLUT4); assay: Translocation of glucose transporter to cell membrane by immunofluorescence; conditions: HaCaT cells; 0.001, 0.01 and 0.1 μM in serum-free DMEM, 5 min; FIG. 7
Method: In addition, the translocation of the glucose transporter to the cell membrane in HaCaT cells was evaluated through immunofluorescence analysis. Specifically, HaCaT cells (CLS 300493) were treated with the peptide of SEQ ID NO: 3 and Humulin R (positive control) at concentrations of 0.001, 0.01 and 0.1 μM in a serum-free DMEM medium for 5 min. The cells were washed with a PBS solution, treated with a GLUT4 antibody (Santa Cruz, Calif., USA) for 1 hr, treated with rhodamine red for 40 min, and observed using a confocal laser microscope (Olympus FluoView FW1000; Olympus, Tokyo, Japan).

insulin receptor [3] = assay: 2-NBDG glucose uptake after inhibition of insulin receptor expression using siRNA; conditions: peptide 1 μM, 5 min; siRNA 10 nM or 30 nM vs no treatment; HaCaT cells; FIG. 6
Method: Based on the above test results, in order to evaluate whether, like insulin, the peptide of the present invention enhances glucose uptake through the insulin receptor, insulin receptor expression was inhibited using siRNA, after which 2-NBDG glucose uptake testing was performed. HaCaT cells (CLS 300493) were cultured in a DMEM serum medium until the cells reached 50-60% confluency, followed by transient transfection using the insulin receptor siRNA (Santa Cruz, Calif., USA) (no treatment, 10 nM treatment, or 30 nM treatment) and lipofectamine RNAiMAX (Invitrogen) in accordance with the manufacturer's protocol to thus inhibit insulin receptor expression, after which the cells were treated for 5 min using the peptide of SEQ ID NO: 3 at a concentration of 1 μM. A mixed solution of a 2-NBDG reagent and a glucose uptake enhancer was prepared in accordance with the manufacturer's protocol, after which the cells were treated therewith for 1 hr, washed with the supplied cold 1× analysis buffer, and observed using a confocal laser microscope (Olympus FluoView FW1000; Olympus, Tokyo, Japan).

HaCaT cells [4] = assay: 2-NBDG glucose uptake analysis; conditions: 0.001, 0.01, 0.1 μM in serum-free media, 5 min, FIG. 5
Method: 2-NBDG glucose, which is a fluorescent deoxyglucose analogue, is introduced into cells by a glucose transporter, like glucose, but accumulates without actual metabolism, and thus the extent of glucose uptake may be determined based on the accumulated amount of fluorescence. A 2-NBDG glucose uptake kit (Biovision) was used for 2-NBDG glucose uptake analysis. Specifically, 3×10^4 HaCaT cells (CLS 300493) were seeded in each well of a 24-well plate, cultured in a 5% CO2 incubator at 37° C. for 24 hr with a DMEM serum medium, washed with PBS, and treated with the peptide of SEQ ID NO: 3 and Humulin R such that the concentrations in serum-free media were 0.001 μM, 0.01 μM, and 0.1 μM, followed by incubation for 5 min. A mixed solution of a 2-NBDG reagent and a glucose uptake enhancer was prepared in accordance with the manufacturer's protocol, after which the cells were treated therewith for 1 hr, washed with the supplied cold 1× analysis buffer, and observed using a confocal laser microscope (Olympus FluoView FW1000; Olympus, Tokyo, Japan).

HaCaT cells [5] = assay: Cell proliferation test (CCK-8); conditions: 0.1, 1 and 10 μM in serum-free media, 24, 48 and 72 hr, FIG. 4
Method: For cell proliferation testing, 5×10^3 HaCaT cells (CLS 300493) were seeded in each well of a 96-well plate, and then treated with a solution containing the peptide of SEQ ID NO: 3 (total volume: 90 μl) such that the concentrations in serum-free media were 0.1, 1 and 10 μM. Cell proliferation for 24, 48 and 72 hr was observed using a microplate reader (Versa Max, USA). For measurement, treatment was performed for 2 hr using 10 μl of a CCK-8 (cell counting kit-8) solution at the same time every day.

HaCaT cells [6] = assay: Cell migration test (Culture-Insert 2 Well); conditions: peptide 0.01, 0.1, 1 μM or Humulin R 1 μM for 5 min, observed after 10 hr and 13 hr, FIG. 3
Method: For cell migration testing, a Culture-Insert 2 Well (Ibidi™), having two separate culture spaces therein, was used. When cells are cultured on the above plate, the cells are attached to both sides, between which an empty space is formed, followed by removal of the insert well and further culturing, whereby the cells of the two sides migrate to the empty space of the plate. HaCaT cells (CLS 300493) were cultured on the above plate until the cells reached 90% confluency and then the insert well was removed, after which the cells were treated for 5 min with the peptide of SEQ ID NO: 3 (0.01 μM, 0.1 μM, 1 μM) or Humulin R (1 μM), and washed with PBS, after which the medium was replaced with a cell culture medium (DMEM serum medium). After 10 hr and 13 hr, cell migration was observed through a phase contrast microscope.

insulin receptor [7] = assay: Immunofluorescence analysis of endocytosis of FITC-conjugated peptide in HaCaT cells; conditions: FITC-conjugated peptide 1 μM, 5, 15, 30, 60 min tested, FIG. 2A
Method: In order to evaluate whether, like insulin, the peptide of the present invention induces endocytosis by binding to the insulin receptor, immunofluorescence analysis was performed. A fluorescent material (FITC) was conjugated to the peptide of SEQ ID NO: 3. HaCaT cells (CLS 300493) were pretreated in the same manner as in Test Example 1, added with the peptide solution of SEQ ID NO: 3 having the fluorescent material conjugated thereto such that the final concentration was 1 μM, and then treated for 5 min, 15 min, 30 min, and 60 min. The cells were washed three times with a PBS solution and then mounted onto a slide to give a test specimen, which was then observed using a confocal laser microscope (Olympus FluoView FW1000; Olympus, Tokyo, Japan). […] The insulin binds to the insulin receptor in the cells, followed by endocytosis (internalization) and then degradation.

[8] = system: physical interaction between Grb2 and SOS1; assay: Insulin-like activity: Grb2-SOS1 physical interaction by PLA (proximity ligation assay) in HaCaT cells; conditions: 1 μM, 5 min, Humulin R at same concentration, FIG. 1
Method: When the insulin signal is transmitted into cells, the physical interaction between Grb2 and SOS1 is increased. After treatment of the cells with the peptide of the present invention, the physical interaction between Grb2 and SOS1 was measured through PLA (proximity ligation assay) and thus insulin-like activity was evaluated. 4.5×10^4 HaCaT cells (CLS 300493) were seeded in a DMEM serum medium in each well of a 24-well microplate and cultured in a 5% CO2 incubator at 37° C. for 24 hr, after which the peptide solution of Example 2 was added such that the peptide concentration of SEQ ID NOS: 1 to 6 in the medium was 1 μM, followed by incubation for 5 min under the same conditions. As a positive control, Humulin R was treated at the same concentration. A control received no treatment. The cells of each well were washed with PBS, treated with 2% formaldehyde for 15 min to thus fix the same, and then treated with 0.1% TritonX-100 for 5 min to thus increase antibody permeability into the cells. […] The physical interactions of the Grb2 and SOS1 antibodies were quantified by measuring the PLA signals detected in individual cells using a confocal laser microscope (Olympus FluoView FW1000; Olympus, Tokyo, Japan).

Substance | Incidence of endocytosis in group transiently transfected with insulin receptor siRNA (insulin receptor [1]) | Amount of glucose transporter (GLUT4) in the cell membrane [2] | Glucose uptake (2-NBDG) in group transiently transfected with insulin receptor siRNA (insulin receptor [3]) | Glucose uptake (2-NBDG) (HaCaT cells [4]) | Cell proliferation (HaCaT cells [5]) | Cell migration (HaCaT cells [6]) | Time after treatment at which highest endocytosis (fluorescence) was observed (insulin receptor [7]) [min] | Grb2/SOS1 antibody interaction (PLA signals) compared to positive control Humulin R [8]
Cys-Ser-Leu (CSL; Peptide fragment) [SEQ ID NO: 3] | reduced | increased in the cell membrane in a concentration-dependent manner | reduced | increased in a concentration-dependent manner | increased in a concentration-dependent manner | increased in a concentration-dependent manner | 5 | significantly higher antibody interaction than the positive control
Humulin R: recombinant insulin preparation (injection), used as positive control [reference compound] |  | increased in the cell membrane in a concentration-dependent manner |  | increased in a concentration-dependent manner |  | increased |  | 
